Test results as given in ChEMBL document CHEMBL4431301, “The Medicinal Chemistry of Dengue Virus” (J Med Chem, 2016).
Where a SMILES comes first, the peptide text is derived from it.

Key:
[1] = tested on: dengue virus type 2; assay: Antiviral activity against Dengue virus 2 infected in human A549 cells assessed as decrease in viral envelope protein production after 48 hrs by CFI assay; type: functional, organism-based; settings: A549, 48 h
[2] = Selectivity index, ratio of CC50 for human A549 cells to EC50 for Dengue virus 2 infected in human A549 cells; type: toxicity, cell-based; settings: read-out: Ratio CC50/EC50
[3] = tested on: dengue virus type 2; assay: Antiviral activity against Dengue virus 2 NGC infected in african green monkey Vero cells preincubated with virus for 5 mins followed by cell infection for 5 mins by immunofluorescence analysis; type: functional, organism-based
[4] = molecular target: T1, DEN4V NS2B-G4SG4NS3 serine protease (Dengue virus type 4, UniProt P09866); assay: Non-competitive inhibition of Dengue virus 4 NS3 helicase
[5] = tested on: dengue virus type 2; assay: Antiviral activity against Dengue virus 2 NGC infected in human A549 cells assessed as reduction in viral envelope protein production after 48 hrs by CFI assay; type: functional, organism-based; settings: A549, 48 h
[6] = tested on: dengue virus type 2; assay: Antiviral activity against Dengue virus 2 NGC infected in BHK21 cells assessed as reduction in viral titer after 48 hrs by plaque assay; type: functional, organism-based; settings: BHK-21, 48 h
[7] = tested on: dengue virus type 1; assay: Antiviral activity against Dengue virus 1 West Pacific infected in BHK21 cells assessed as reduction in viral titer after 48 hrs by plaque assay; type: functional, organism-based; settings: BHK-21, 48 h
[8] = tested on: dengue virus type 3; assay: Antiviral activity against Dengue virus 3 H87 infected in BHK21 cells assessed as reduction in viral titer after 48 hrs by plaque assay; type: functional, organism-based; settings: H87, BHK-21, 48 h
[9] = tested on: dengue virus type 4; assay: Antiviral activity against Dengue virus 4 H241 infected in BHK21 cells assessed as reduction in viral titer after 48 hrs by plaque assay; type: functional, organism-based; settings: H241, BHK-21, 48 h
[10] = tested on: dengue virus type 1; assay: Antiviral activity against Dengue virus 1 P03-08 infected in african green monkey Vero cells assessed as reduction in virus replication after 72 hrs by foci-forming assay; type: functional, organism-based; settings: P03-08, Vero
[11] = tested on: dengue virus type 2; assay: Antiviral activity against Dengue virus 2 NGC infected in african green monkey Vero cells assessed as reduction in virus replication after 72 hrs by foci-forming assay; type: functional, organism-based
[12] = tested on: dengue virus type 3; assay: Antiviral activity against Dengue virus 3 P12-08 infected in african green monkey Vero cells assessed as reduction in virus replication after 72 hrs by foci-forming assay; type: functional, organism-based; settings: P12-08, Vero
[13] = tested on: dengue virus type 4; assay: Antiviral activity against Dengue virus 4 P11-08 infected in african green monkey Vero cells assessed as reduction in virus replication after 72 hrs by foci-forming assay; type: functional, organism-based; settings: P11-08, Vero
[14] = Cytotoxicity against african green monkey Vero cells after 72 hrs by MTT assay; type: cell-based; settings: chlorocebus sabaeus
[15] = molecular target: T2, Genome polyprotein (dengue virus type 2, UniProt P29990); assay: Inhibition of recombinant Dengue virus 2 S-16803 NS2B-NS3 protease using Bz-nKRRAMC as substrate preincubated with enzyme followed by substrate addition measured after 20 mins by fluorescence assay
[16] = molecular target: T2, Genome polyprotein; assay: Inhibition of Dengue virus 1 NS2B-NS3 protease expressed in Escherichia coli using Abz-RRRRSAG-nY-NH2 as substrate preincubated for 20 mins followed by addition of substrate measured after 60 mins by fluorescence assay; design: species or system dengue virus type 1
[17] = molecular target: T2, Genome polyprotein; assay: Inhibition of Dengue virus 2 NS2B-NS3 protease expressed in Escherichia coli using Abz-RRRRSAG-nY-NH2 as substrate preincubated for 20 mins followed by addition of substrate measured after 60 mins by fluorescence assay
[18] = molecular target: T2, Genome polyprotein; assay: Inhibition of Dengue virus 3 NS2B-NS3 protease expressed in Escherichia coli using Abz-RRRRSAG-nY-NH2 as substrate preincubated for 20 mins followed by addition of substrate measured after 60 mins by fluorescence assay; design: species or system dengue virus type 3
[19] = molecular target: T1, DEN4V NS2B-G4SG4NS3 serine protease; assay: Inhibition of Dengue virus 4 NS2B-NS3 protease expressed in Escherichia coli using Abz-RRRRSAG-nY-NH2 as substrate preincubated for 20 mins followed by addition of substrate measured after 60 mins by fluorescence assay
[20] = tested on: dengue virus type 1; assay: Antiviral activity against Dengue virus 1 infected in monkey LLC-MK2 cells assessed as reduction in viral infection at 2 to 5 uM by focus forming unit assay; type: functional; design: scale not given: the % may be the effect or the level left
[21] = tested on: dengue virus type 2; assay: Antiviral activity against Dengue virus 2 infected in monkey LLC-MK2 cells assessed as reduction in viral infection at 2 to 5 uM by focus forming unit assay; type: functional; design: scale not given: the % may be the effect or the level left
[22] = tested on: dengue virus type 3; assay: Antiviral activity against Dengue virus 3 infected in monkey LLC-MK2 cells assessed as reduction in viral infection at 2 to 5 uM by focus forming unit assay; type: functional; design: scale not given: the % may be the effect or the level left
[23] = tested on: dengue virus type 4; assay: Antiviral activity against Dengue virus 4 infected in monkey LLC-MK2 cells assessed as reduction in viral infection at 2 to 5 uM by focus forming unit assay; type: functional; design: scale not given: the % may be the effect or the level left

T2 sequence (P29990 1346-1475 limits assumed): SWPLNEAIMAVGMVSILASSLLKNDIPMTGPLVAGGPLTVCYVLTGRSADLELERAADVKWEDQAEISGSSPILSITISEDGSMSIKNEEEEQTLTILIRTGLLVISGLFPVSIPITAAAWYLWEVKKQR
T2 sequence (P29990 1476-2093 limits assumed): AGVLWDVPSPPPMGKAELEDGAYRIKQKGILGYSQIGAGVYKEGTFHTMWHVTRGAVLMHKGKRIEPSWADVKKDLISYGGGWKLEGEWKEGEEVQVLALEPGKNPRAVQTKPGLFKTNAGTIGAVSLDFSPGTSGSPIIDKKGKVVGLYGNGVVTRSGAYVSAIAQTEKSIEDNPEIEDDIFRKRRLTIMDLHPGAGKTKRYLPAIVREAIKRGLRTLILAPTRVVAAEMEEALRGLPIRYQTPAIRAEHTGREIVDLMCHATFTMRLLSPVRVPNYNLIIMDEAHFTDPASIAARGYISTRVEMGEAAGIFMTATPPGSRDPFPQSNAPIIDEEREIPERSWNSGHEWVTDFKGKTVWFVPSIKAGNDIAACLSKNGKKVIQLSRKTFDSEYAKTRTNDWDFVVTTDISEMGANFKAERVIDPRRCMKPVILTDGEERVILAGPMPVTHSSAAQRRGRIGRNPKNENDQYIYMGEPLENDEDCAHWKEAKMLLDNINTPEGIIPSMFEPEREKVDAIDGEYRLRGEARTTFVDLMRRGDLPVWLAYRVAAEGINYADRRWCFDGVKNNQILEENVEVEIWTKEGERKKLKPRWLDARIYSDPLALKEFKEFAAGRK

`CC(=O)O[C@H]1[C@H]2c3cc4c(cc3CN3CCC(=C[C@@H]1O)[C@H]23)OCO4` showed an EC50 [1] of 0.4 µM and a selectivity ratio [2] of over 750.

`Cc1ccc(C(=O)Nc2ccc(S(=O)(=O)O)c3cc(S(=O)(=O)O)cc(S(=O)(=O)O)c23)cc1NC(=O)c1cccc(NC(=O)Nc2cccc(C(=O)Nc3cc(C(=O)Nc4ccc(S(=O)(=O)O)c5cc(S(=O)(=O)O)cc(S(=O)(=O)O)c45)ccc3C)c2)c1` [SURAMIN] gave an EC50 [3] of 40 µM and a Ki [4] of 0.75 µM.

`COc1ccc(-c2csc(NC(=O)c3cc(C(C)(C)C)cc(C(C)(C)C)c3)n2)cc1` gave an EC50 [5] of 1 µM, an EC50 [6] of 1.6 µM and an EC50 [7] of 1 to 4.1 µM. The EC50 [8] was 1 to 4.1 µM and the EC50 [9] was 1 to 4.1 µM.

In the case of `Cc1ccc(S(=O)(=O)Nc2cc(SCC(=O)O)c(O)c3ccccc23)cc1[N+](=O)[O-]`, the EC50 [10] is reported as 0.97 µM, the EC50 [11] is reported as 0.98 µM and the EC50 [12] is reported as 2.43 µM. For the same compound, the EC50 [13] was 0.74 µM and the CC50 at 72 h [14] was 67.3 µM.

`N#C/C(=C\c1ccc(-c2ccc(C(=O)O)cc2)s1)c1nc2cc(Cl)ccc2[nH]1` gave an IC50 [15] of 5.95 µM.

With `NC(=O)[C@H](Cc1c[nH]c2ccccc12)NC(=O)[C@H](CS)NC(=O)[C@H](Cc1ccc(O)cc1)NC(=O)[C@@H](N)Cc1c[nH]c2ccccc12` (H-WYCW-NH2) the Ki [16] was 4.2 µM, the Ki [17] was 4.8 µM and the Ki [18] was 24.4 µM. The Ki [19] was 11.2 µM.

Compound `CC[C@H](C)[C@H](NC(=O)[C@H](C)NC(=O)CNC(=O)[C@H](Cc1ccccc1)NC(=O)[C@@H](NC(=O)[C@H](CCC(N)=O)NC(=O)[C@H](Cc1cnc[nH]1)NC(=O)[C@H](CC(C)C)NC(=O)[C@H](C)NC(=O)[C@H](CCCCN)NC(=O)CNC(=O)[C@@H](NC(=O)[C@H](CO)NC(=O)[C@@H](NC(=O)[C@H](Cc1ccccc1)NC(=O)[C@@H](NC(=O)CNC(=O)CNC(=O)[C@H](CC(C)C)NC(=O)[C@H](CO)NC(=O)CNC(=O)[C@H](Cc1ccccc1)NC(=O)[C@H](CC(=O)O)NC(=O)[C@H](Cc1c[nH]c2ccccc12)NC(=O)[C@H](C)NC(=O)[C@@H](NC(=O)[C@H](CC(=O)O)NC(=O)CNC(=O)[C@H](CC(C)C)NC(=O)[C@@H](NC(=O)[C@H](C)NC(=O)[C@@H](N)CCSC)[C@@H](C)CC)[C@@H](C)O)C(C)C)[C@@H](C)O)[C@@H](C)CC)C(C)C)C(=O)N[C@@H](Cc1ccc(O)cc1)C(=O)O` (H-MAILGDTAWDFGSLGGVFTSIGKALHQVFGAIY-OH) has an Activity [20] of 50%, an Activity [21] of 50% and an Activity [22] of 50%. The Activity [23] was 50%.
